target: T1, human CRTH2 (Homo sapiens, UniProt Q9Y5Y4); assay: [35S]GTPγS binding assay (SPA) on membranes from CHO-K1 cells stably expressing human CRTH2, stimulated with 60 nM DHK-PGD2; type: biochemical; conditions: membranes of CHO-K1 cells expressing human CRTH2; 60 nM DHK-PGD2; Table 1; read-out: CRTH2 hGTPγS IC50
T1 construct: expressed in transfected cells
T1 sequence (Q9Y5Y4 1-395): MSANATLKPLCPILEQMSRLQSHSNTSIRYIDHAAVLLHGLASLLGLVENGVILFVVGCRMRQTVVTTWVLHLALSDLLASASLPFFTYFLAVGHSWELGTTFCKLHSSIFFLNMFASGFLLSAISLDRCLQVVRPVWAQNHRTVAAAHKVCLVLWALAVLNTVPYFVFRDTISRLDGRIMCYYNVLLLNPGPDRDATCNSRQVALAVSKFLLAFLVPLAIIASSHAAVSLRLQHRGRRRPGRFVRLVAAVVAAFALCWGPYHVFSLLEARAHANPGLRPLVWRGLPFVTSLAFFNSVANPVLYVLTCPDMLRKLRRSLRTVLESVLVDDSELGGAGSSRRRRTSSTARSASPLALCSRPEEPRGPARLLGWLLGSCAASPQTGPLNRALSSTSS
Outline: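 Membranes (4 μg) from CHO-K1 cells stably expressing human CRTH2 were incubated with compounds, 60 nM DHK-PGD2, 500 pM [35S]GTPγS and 10 μM GDP plus WGA SPA beads. Buffer was 20 mM HEPES pH 7.4, 10 mM MgCl2, 300 mM NaCl, 0.2% BSA, with 1% DMSO. Incubation ran 2 h at ambient temperature, with SPA scintillation read 4 h after centrifugation.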

Row | IC50 | SMILES
1 | 2 nM | CN(Cc1ccc(OCC(=O)O)c(-c2cc(F)cc(C#N)c2)c1)S(=O)(=O)c1cccc(Cl)c1 [Example 45, 2-(3-cyano-5-fluorophenyl)-4-((3-chloro-N-methylphenylsulfonamido)methyl)phenoxyacetic acid]
2 | 0.7 nM | COc1ccc(S(=O)(=O)NCc2ccc(OCC(=O)O)c(-c3cc(F)cc(C#N)c3)c2)cc1F [Example 196, 2-(3-cyano-5-fluorophenyl)-4-((3-fluoro-4-methoxyphenylsulfonamido)methyl)phenoxyacetic acid]
3 | 0.7 nM | CN(Cc1ccc(OCC(=O)O)c(-c2cc(F)cc(C#N)c2)c1)S(=O)(=O)c1ccc(Cl)c(Cl)c1 [Example 38, 2-(3-cyano-5-fluorophenyl)-4-((3,4-dichloro-N-methylphenylsulfonamido)methyl)phenoxyacetic acid]
4 | 1.5 nM | CN(Cc1cc(-c2cccc(C#N)c2)c(OCC(=O)O)cc1Cl)S(=O)(=O)c1ccc(F)c(Cl)c1 [Example 42, 2-(3-cyanophenyl)-4-((3-chloro-4-fluoro-N-methylphenylsulfonamido)methyl)-5-chlorophenoxyacetic acid]
5 | 0.6 nM | COc1ccc(S(=O)(=O)N(C)Cc2cc(-c3cc(F)cc(C#N)c3)c(OCC(=O)O)cc2F)cc1F [Example 197, 2-(3-cyano-5-fluorophenyl)-(5-fluoro-4-((3-fluoro-4-methoxy-N-methylphenylsulfonamido)methyl)phenoxy)acetic acid]

same assay, conditions: potency class symbols; Table 2; read-out: CRTH2 hGTPγS IC50

Row | SMILES | IC50
6 | CN(Cc1ccc(OCC(=O)O)c(-c2cc(F)cc(C#N)c2)c1)S(=O)(=O)c1cccc(Cl)c1 [Example 45, 2-(3-cyano-5-fluorophenyl)-4-((3-chloro-N-methylphenylsulfonamido)methyl)phenoxyacetic acid] | < 100 nM
7 | CN(Cc1ccc(OCC(=O)O)c(-c2ccc(F)c(F)c2)c1)S(=O)(=O)c1ccc(F)cc1 [Example 144, 2-(3,4-difluorophenyl)-4-((4-fluoro-N-methylphenylsulfonamido)methyl)phenoxyacetic acid] | 100 to 1000 nM
8 | COc1ccc(S(=O)(=O)NCc2ccc(OCC(=O)O)c(-c3cc(F)cc(C#N)c3)c2)cc1F [Example 196, 2-(3-cyano-5-fluorophenyl)-4-((3-fluoro-4-methoxyphenylsulfonamido)methyl)phenoxyacetic acid] | < 100 nM
9 | CN(Cc1ccc(OCC(=O)O)c(-c2cccc(C#N)c2)c1)S(=O)(=O)c1ccc(Cl)c(Cl)c1 [Example 56, 2-(3-cyanophenyl)-4-((3,4-dichloro-N-methylphenylsulfonamido)methyl)phenoxyacetic acid] | < 100 nM
10 | CN(Cc1ccc(OCC(=O)O)c(-c2cc(F)cc(C(F)(F)F)c2)c1)S(=O)(=O)c1ccc(F)cc1 [Example 79, 2-(3-trifluoromethyl-5-fluorophenyl)-4-((4-fluoro-N-methylphenylsulfonamido)methyl)phenoxyacetic acid] | < 100 nM
11 | CN(Cc1cc(-c2cccc(C#N)c2)c(OCC(=O)O)cc1Cl)S(=O)(=O)c1ccc(F)c(Cl)c1 [Example 42, 2-(3-cyanophenyl)-4-((3-chloro-4-fluoro-N-methylphenylsulfonamido)methyl)-5-chlorophenoxyacetic acid] | < 100 nM
12 | CN(Cc1ccc(OCC(=O)O)c(-c2cccc(Cl)c2)c1)S(=O)(=O)c1ccccc1 [Example 167, 2-(3-chlorophenyl)-4-((N-methylphenylsulfonamido)methyl)phenoxyacetic acid] | 1000 to 10000 nM
13 | CN(Cc1cc(-c2cccc(C#N)c2)c(OCC(=O)O)cc1F)S(=O)(=O)c1cccc(F)c1 [Example 87, 2-(3-cyanophenyl)-4-((3-fluoro-N-methylphenylsulfonamido)methyl)-5-fluorophenoxyacetic acid] | < 100 nM
14 | COc1ccc(S(=O)(=O)N(C)Cc2cc(-c3cc(F)cc(C#N)c3)c(OCC(=O)O)cc2F)cc1F [Example 197, 2-(3-cyano-5-fluorophenyl)-(5-fluoro-4-((3-fluoro-4-methoxy-N-methylphenylsulfonamido)methyl)phenoxy)acetic acid] | < 100 nM
15 | Cc1ccc(S(=O)(=O)N(C)Cc2ccc(OCC(=O)O)c(-c3cccc(C#N)c3)c2)cc1 [Example 109, 2-(3-cyanophenyl)-4-((4-methyl-N-methylphenylsulfonamido)methyl)phenoxyacetic acid] | 100 to 1000 nM
16 | CN(Cc1ccc(OCC(=O)O)c(-c2cccc(C(F)(F)F)c2)c1)S(=O)(=O)Cc1ccccc1 [Example 159, 2-(3-trifluoromethylphenyl)-4-((N-methylbenzylsulfonamido)methyl)phenoxyacetic acid] | 1000 to 10000 nM
17 | CN(Cc1ccc(OCC(=O)O)c(-c2ccc(S(C)(=O)=O)cc2)c1)S(=O)(=O)c1ccc(F)cc1 [Example 124, 2-(4-methylsulfonylphenyl)-4-((4-fluoro-N-methylphenylsulfonamido)methyl)phenoxyacetic acid] | 100 to 1000 nM
18 | CN(Cc1ccc(OCC(=O)O)c(-c2ccc(F)c(F)c2)c1)S(=O)(=O)c1ccccc1 [Example 154, 2-(3,4-difluorophenyl)-4-((N-methylphenylsulfonamido)methyl)phenoxyacetic acid] | 1000 to 10000 nM
19 | CN(Cc1ccc(OCC(=O)O)c(-c2cc(F)cc(C#N)c2)c1)S(=O)(=O)c1ccccc1 [Example 80, 2-(3-cyano-5-fluorophenyl)-4-((N-methylphenylsulfonamido)methyl)phenoxyacetic acid] | < 100 nM

Further lines, results first:

Row | IC50 | SMILES
20 | < 100 nM | CN(Cc1ccc(OCC(=O)O)c(-c2ccc3ccn(C)c3c2)c1)S(=O)(=O)c1ccc(F)cc1 [Example 101, 2-(1-methyl-indol-6-yl)-4-((4-fluoro-N-methylphenylsulfonamido)methyl)phenoxyacetic acid]
21 | < 100 nM | CN(Cc1cc(-c2cccc(C#N)c2)c(OCC(=O)O)cc1Cl)S(=O)(=O)c1ccc(F)cc1 [Example 49, 2-(3-cyanophenyl)-4-((4-fluoro-N-methylphenylsulfonamido)methyl)-5-chlorophenoxyacetic acid]
22 | 1000 to 10000 nM | CN(Cc1ccc(OCC(=O)O)c(-c2ccc(Cl)cc2)c1)S(=O)(=O)c1ccccc1 [Example 179, 2-(4-chlorophenyl)-4-((N-methylphenylsulfonamido)methyl)phenoxyacetic acid]
23 | < 100 nM | COc1ccc(S(=O)(=O)N(C)Cc2ccc(OCC(=O)O)c(-c3cccc(C#N)c3)c2)cc1F [Example 71, 2-(3-cyanophenyl)-4-((3-fluoro-4-methoxy-N-methylphenylsulfonamido)methyl)phenoxyacetic acid]
24 | 100 to 1000 nM | CN(Cc1ccc(OCC(=O)O)c(-c2ccn3ccnc3c2)c1)S(=O)(=O)c1ccc(F)cc1 [Example 128, 2-(imidazo[1,2-a]pyridin-7-yl)-4-((4-fluoro-N-methylphenylsulfonamido)methyl)phenoxyacetic acid]
25 | 1000 to 10000 nM | CN(Cc1ccc(OCC(=O)O)c(-c2ccc(C(F)(F)F)cc2)c1)S(=O)(=O)c1ccc(F)cc1 [Example 162, 2-(4-trifluoromethylphenyl)-4-((4-fluoro-N-methylphenylsulfonamido)methyl)phenoxyacetic acid]
26 | 1000 to 10000 nM | COc1cccc(-c2cc(CN(C)S(=O)(=O)c3ccccc3)ccc2OCC(=O)O)c1 [Example 151, 2-(3-methoxyphenyl)-4-((-N-methylphenylsulfonamido)methyl)phenoxyacetic acid]
27 | < 100 nM | CN(Cc1ccc(OCC(=O)O)c(-c2cccc(S(C)(=O)=O)c2)c1)S(=O)(=O)c1ccc(F)cc1 [Example 60, 2-(3-methylsulfonylphenyl)-4-((4-fluoro-N-methylphenylsulfonamido)methyl)phenoxyacetic acid]
28 | < 100 nM | CN(Cc1ccc(OCC(=O)O)c(-c2cc(F)cc(C#N)c2)c1)S(=O)(=O)c1ccc(Cl)c(Cl)c1 [Example 38, 2-(3-cyano-5-fluorophenyl)-4-((3,4-dichloro-N-methylphenylsulfonamido)methyl)phenoxyacetic acid]
29 | 100 to 1000 nM | CN(Cc1ccc(OCC(=O)O)c(-c2cccc(C(F)(F)F)c2)c1)S(=O)(=O)c1ccc(C#N)cc1 [Example 120, 2-(3-trifluoromethylphenyl)-4-((4-cyano-N-methylphenylsulfonamido)methyl)phenoxyacetic acid]
30 | < 100 nM | CN(Cc1ccc(OCC(=O)O)c(-c2cccc(S(C)(=O)=O)c2)c1)S(=O)(=O)c1cccc(C#N)c1 [Example 88, 2-(3-methylsulfonylphenyl)-4-((3-cyano-N-methylphenylsulfonamido)methyl)phenoxyacetic acid]
31 | < 100 nM | CN(Cc1ccc(OCC(=O)O)c(-c2cccc(C#N)c2)c1)S(=O)(=O)c1ccc(F)c(Cl)c1 [Example 62, 2-(3-cyanophenyl)-4-((3-chloro-4-fluoro-N-methylphenylsulfonamido)methyl)phenoxyacetic acid]
32 | < 100 nM | CC(C)Oc1cc(F)cc(-c2cc(CN(C)S(=O)(=O)c3ccc(F)cc3)ccc2OCC(=O)O)c1 [Example 100, 2-(3-isopropoxy-5-fluorophenyl)-4-((4-fluoro-N-methylphenylsulfonamido)methyl)phenoxyacetic acid]
33 | 1000 to 10000 nM | CN(Cc1ccc(OCC(=O)O)c(-c2ccccc2)c1)S(=O)(=O)c1ccccc1 [Example 169, 2-phenyl-4-((N-methylphenylsulfonamido)methyl)phenoxyacetic acid]
34 | 100 to 1000 nM | COc1ccccc1S(=O)(=O)N(C)Cc1ccc(OCC(=O)O)c(-c2cccc(C(F)(F)F)c2)c1 [Example 146, 2-(3-trifluoromethylphenyl)-4-((2-methoxy-N-methylphenylsulfonamido)methyl)phenoxyacetic acid]
35 | < 100 nM | CN(Cc1ccc(OCC(=O)O)c(-c2cc(F)cc(C#N)c2)c1)S(=O)(=O)c1cc(F)cc(F)c1 [Example 76, 2-(3-cyano-5-fluorophenyl)-4-((3,5-difluoro-N-methylphenylsulfonamido)methyl)phenoxyacetic acid]
36 | < 100 nM | CN(Cc1ccc(OCC(=O)O)c(-c2cccc(S(C)(=O)=O)c2)c1)S(=O)(=O)c1cc(F)cc(F)c1 [Example 72, 2-(3-methylsulfonylphenyl)-4-((3,5-difluoro-N-methylphenylsulfonamido)methyl)phenoxyacetic acid]
37 | 100 to 1000 nM | CCOc1cc(F)cc(-c2cc(CN(C)S(=O)(=O)c3ccc(F)cc3)ccc2OCC(=O)O)c1 [Example 112, 2-(3-ethoxy-5-fluorophenyl)-4-((4-fluoro-N-methylphenylsulfonamido)methyl)phenoxyacetic acid]
38 | < 100 nM | COc1ccc(S(=O)(=O)N(C)Cc2ccc(OCC(=O)O)c(-c3cc(F)cc(C#N)c3)c2)cc1F [Example 41, 2-(3-cyano-5-fluorophenyl)-4-((3-fluoro-4-methoxy-N-methylphenylsulfonamido)methyl)phenoxyacetic acid]

— patent US8822467B2 (Ligand Pharmaceuticals Inc., priority 2009, dated 2014)
